How the values were obtained:
[1] = test system: A549-ACE2 infected with SARS-CoV-2; assay: cell count relative to DMSO; higher = less toxic; conditions: 24 h
Caco-2 [2] = assay: cell viability relative to DMSO; higher = less toxic; conditions: 72 h
Calu-3 [3] = assay: as above; conditions: 72 h
HepG2 [4] = assay: as above; conditions: 72 h
U2OS [5] = assay: as above; conditions: 72 h
Vero E6 [6] = assay: as above; conditions: 72 h
[7] = test system: A549-ACE2 infected with SARS-CoV-2; assay: SARS-CoV-2 infection rate relative to DMSO; higher = more infection; conditions: 24 h
A549-ACE2 [8] = assay: drug-induced phospholipidosis relative to tamoxifen; higher = more phospholipidosis
[9] = test system: A549-ACE2 infected with SARS-CoV-2; assay: morphology score (similarity to uninfected cells); higher = more like uninfected cells; conditions: 24 h
Caco-2 [10] = assay: relative viability EC50 (midpoint between 100% and the lowest measured viability); higher = less toxic; conditions: 72 h
Calu-3 [11] = assay: as above; conditions: 72 h
HepG2 [12] = assay: as above; conditions: 72 h
U2OS [13] = assay: as above; conditions: 72 h
Vero E6 [14] = assay: as above; conditions: 72 h
Caco-2 [15] = assay: drug sensitivity score (DSS) for viability; higher = more toxic; extreme values may be limits of the assay; conditions: 72 h
Calu-3 [16] = assay: as above; conditions: 72 h
HepG2 [17] = assay: as above; conditions: 72 h
U2OS [18] = assay: as above; conditions: 72 h
Vero E6 [19] = assay: as above; conditions: 72 h
A549-ACE2 [20] = assay: phospholipidosis EC50; higher = less potent phospholipidosis inducer

N#CC[C@@H](C1CCCC1)n1cc(-c2ncnc3[nH]ccc23)cn1 [ruxolitinib-(S)]
Conditions	SARS-CoV-2 infection rate, [7] [%]	cell count, [1] [%]	cell viability, Caco-2 [2] [%]	cell viability, Calu-3 [3] [%]	cell viability, HepG2 [4] [%]	cell viability, U2OS [5] [%]	cell viability, Vero E6 [6] [%]	morphology score, [9]
1 nM	–	–	103	91.4	101	100	98.5	–
10 nM	–	–	99	97.1	96	99.1	101	–
100 nM	–	–	106	99	92.3	99.3	98.2	–
0.3 µM	109	88	–	–	–	–	–	0.15
1000 nM	–	–	93.6	102	103.3	97.5	96.5	–
3 µM	110	100	–	–	–	–	–	0.17
10 µM	112	91	–	–	–	–	–	-0.08
10000 nM	–	–	99.6	112	97.4	95.8	94.05	–
30 µM	119	36	–	–	–	–	–	-0.15

drug-induced phospholipidosis [%], A549-ACE2 [8]
Conditions	0.3 µM	0.833333 µM	3.33333 µM	6.66667 µM	10 µM	30 µM
24 h	-0.6	-1.86	-0.62	3.24	4.69	32.2
48 h	-3.03	-3.25	-1.5	0.99	1.91	–
72 h	-3.98	-4.86	-3.52	-0.549	1.82	–

Conditions	drug sensitivity score	relative viability EC50 [µM]
Caco-2 [10]	–	> 10
Caco-2 [15]	0	–
Calu-3 [11]	–	> 10
Calu-3 [16]	0	–
HepG2 [12]	–	> 10
HepG2 [17]	0	–
U2OS [13]	–	> 10
U2OS [18]	0	–
Vero E6 [14]	–	> 10
Vero E6 [19]	0	–

O=C1C=C2C=C[C@@H]3C[C@@]2(O1)[C@H]1CCCCN31 [securinine]
Conditions	SARS-CoV-2 infection rate, [7] [%]	cell count, [1] [%]	cell viability, Caco-2 [2] [%]	cell viability, Calu-3 [3] [%]	cell viability, HepG2 [4] [%]	cell viability, U2OS [5] [%]	cell viability, Vero E6 [6] [%]	morphology score, [9]
1 nM	–	–	76.4	96.5	94.9	103	93.1	–
10 nM	–	–	91.5	88.5	103	94.9	101	–
100 nM	–	–	104	101	104	103	92.5	–
0.3 µM	108	92	–	–	–	–	–	-0.16
1000 nM	–	–	90.1	92.1	108	95.1	97.5	–
3 µM	107	97	–	–	–	–	–	-0.26
10 µM	109	103	–	–	–	–	–	-0.24
10000 nM	–	–	99.5	98.5	99.8	94.9	101	–
30 µM	87	84	–	–	–	–	–	-0.11

drug-induced phospholipidosis [%], A549-ACE2 [8]
Conditions	0.3 µM	0.833333 µM	3.33333 µM	6.66667 µM	10 µM	30 µM
24 h	4.04	-1.29	-2.26	-0.14	0.15	3.11
48 h	4.43	0.73	0.81	3.64	1.66	8.62
72 h	5.5	-2.31	1.12	1.57	2.55	11.9

Conditions	drug sensitivity score	relative viability EC50 [µM]
Caco-2 [10]	–	> 10
Caco-2 [15]	0	–
Calu-3 [11]	–	> 10
Calu-3 [16]	0	–
HepG2 [12]	–	> 10
HepG2 [17]	0	–
U2OS [13]	–	> 10
U2OS [18]	0	–
Vero E6 [14]	–	> 10
Vero E6 [19]	0	–

Fc1ccc(-n2cc(CCCCN3CCC4(CC3)OCc3ccccc34)c3ccccc32)cc1 [siramesine]
Conditions	SARS-CoV-2 infection rate [%]	cell count [%]	cell viability [%]	morphology score	phospholipidosis EC50 [µM]
A549-ACE2 [20], 72 h	–	–	–	–	4.1
Caco-2 [2], 1 nM	–	–	97.3	–	–
Caco-2 [2], 10 nM	–	–	104	–	–
Caco-2 [2], 100 nM	–	–	85.1	–	–
Caco-2 [2], 1000 nM	–	–	101	–	–
Caco-2 [2], 10000 nM	–	–	37.5	–	–
Calu-3 [3], 1 nM	–	–	88.8	–	–
Calu-3 [3], 10 nM	–	–	94.3	–	–
Calu-3 [3], 100 nM	–	–	88.2	–	–
Calu-3 [3], 1000 nM	–	–	104	–	–
Calu-3 [3], 10000 nM	–	–	17.8	–	–
HepG2 [4], 1 nM	–	–	97.7	–	–
HepG2 [4], 10 nM	–	–	100	–	–
HepG2 [4], 100 nM	–	–	93.5	–	–
HepG2 [4], 1000 nM	–	–	98.6	–	–
HepG2 [4], 10000 nM	–	–	24	–	–
U2OS [5], 1 nM	–	–	100	–	–
U2OS [5], 10 nM	–	–	97.7	–	–
U2OS [5], 100 nM	–	–	95.6	–	–
U2OS [5], 1000 nM	–	–	103	–	–
U2OS [5], 10000 nM	–	–	53.2	–	–
Vero E6 [6], 1 nM	–	–	98.9	–	–
Vero E6 [6], 10 nM	–	–	93.5	–	–
Vero E6 [6], 100 nM	–	–	99.2	–	–
Vero E6 [6], 1000 nM	–	–	89	–	–
Vero E6 [6], 10000 nM	–	–	73.5	–	–
[1], 0.1 µM	–	111	–	–	–
[1], 0.3 µM	–	114	–	–	–
[1], 1 µM	–	117	–	–	–
[1], 3 µM	–	111	–	–	–
[7], 0.1 µM	93	–	–	–	–
[7], 0.3 µM	50	–	–	–	–
[7], 1 µM	60	–	–	–	–
[7], 3 µM	26	–	–	–	–
[9], 0.1 µM	–	–	–	0.38	–
[9], 0.3 µM	–	–	–	0.75	–
[9], 1 µM	–	–	–	0.69	–
[9], 3 µM	–	–	–	0.84	–

drug-induced phospholipidosis [%], A549-ACE2 [8]
Conditions	0.3 µM	0.833333 µM	3.33333 µM	6.66667 µM	10 µM
24 h	2.74	5.08	32.4	33.5	24.5
48 h	4.1	0.61	22.6	47.9	–
72 h	0.56	0.623	23.8	61.4	–

Conditions	drug sensitivity score	relative viability EC50 [µM]
Caco-2 [10]	–	3.26
Caco-2 [15]	3.3	–
Calu-3 [11]	–	3.44
Calu-3 [16]	4.2	–
HepG2 [12]	–	3.03
HepG2 [17]	4.4	–
U2OS [18]	2.2	–
Vero E6 [19]	2.2	–

Cc1[nH]c(/C=C2\C(=O)Nc3ccc(F)cc32)c(C)c1C(=O)NCCN1CCCC1 [toceranib]
Conditions	SARS-CoV-2 infection rate [%]	cell count [%]	cell viability [%]	morphology score	phospholipidosis EC50 [µM]
A549-ACE2 [20], 24 h	–	–	–	–	16.5
Caco-2 [2], 1 nM	–	–	95.6	–	–
Caco-2 [2], 10 nM	–	–	94.8	–	–
Caco-2 [2], 100 nM	–	–	98.8	–	–
Caco-2 [2], 1000 nM	–	–	105	–	–
Caco-2 [2], 10000 nM	–	–	92.9	–	–
HepG2 [4], 1 nM	–	–	99.4	–	–
HepG2 [4], 10 nM	–	–	107	–	–
HepG2 [4], 100 nM	–	–	97.3	–	–
HepG2 [4], 1000 nM	–	–	106	–	–
HepG2 [4], 10000 nM	–	–	53.9	–	–
U2OS [5], 1 nM	–	–	95.5	–	–
U2OS [5], 10 nM	–	–	97.9	–	–
U2OS [5], 100 nM	–	–	103	–	–
U2OS [5], 1000 nM	–	–	96.3	–	–
U2OS [5], 10000 nM	–	–	85.2	–	–
Vero E6 [6], 1 nM	–	–	89.9	–	–
Vero E6 [6], 10 nM	–	–	99.1	–	–
Vero E6 [6], 100 nM	–	–	101	–	–
Vero E6 [6], 1000 nM	–	–	106	–	–
Vero E6 [6], 10000 nM	–	–	73.2	–	–
[1], 0.1 µM	–	107	–	–	–
[1], 0.3 µM	–	103	–	–	–
[1], 1 µM	–	102	–	–	–
[1], 3 µM	–	111	–	–	–
[7], 0.1 µM	88	–	–	–	–
[7], 0.3 µM	107	–	–	–	–
[7], 1 µM	100	–	–	–	–
[7], 3 µM	80	–	–	–	–
[9], 0.1 µM	–	–	–	0.22	–
[9], 0.3 µM	–	–	–	-0.03	–
[9], 1 µM	–	–	–	0.33	–
[9], 3 µM	–	–	–	0.51	–

drug-induced phospholipidosis [%], A549-ACE2 [8]
Conditions	0.3 µM	0.833333 µM	3.33333 µM	6.66667 µM	10 µM	30 µM
24 h	4.88	-0.73	12.9	38.6	54.2	119
48 h	5.94	-0.83	1.11	20.1	38.4	–
72 h	4.25	-2.8	-0.0471	16	34	–

Conditions	drug sensitivity score	relative viability EC50 [µM]
Caco-2 [10]	–	> 10
Caco-2 [15]	0	–
HepG2 [17]	2	–
U2OS [13]	–	> 10
U2OS [18]	0.5	–
Vero E6 [19]	0.8	–

Source: the supplement of paper PMC13380429
